Experiment: selective molecular separation (partitioning) of local anesthetics by a microemulsion having an electron deficient aromatic ring
Type: physicochemical
Settings: microemulsion with electron deficient ring oil, e.g. 1,3 di(trifluoromethyl) benzene
Excerpt: In one embodiment, the materials and/or methods of the subject invention can be used to separate drugs of the same class. A specific embodiment involves separating local anesthetics. […] This is accomplished by exploiting differences in electron density in π electron orbitals.
In these molecules, the π electron orbitals are aligned at right angles to the planar surface of the benzene rings. Differences in substitution by the side chain in cocaine or bupivacaine cause either electron depletion (δ^+) or enrichment (δ^−). Such characteristics can be used to selectively separate these molecules.
According to the subject invention, any oil or “mating” molecule with a benzene ring is acceptable in providing a microemulsion system, as long as the substitutions are electron withdrawing from the benzene ring into the side chains. In this case, the electron deficient ring is a component of a molecule (e.g., 1,3 di(trifluoromethyl) benzene) that, at room and physiological temperatures, is an oil (FIG. 3). Thus, these oil molecules can be used to construct the lipid core of a microemulsion or may be added as solutes into the lipid core of a microemulsion wherein another oil serves as the lipid core.

CCCCN1CCCCC1C(=O)Nc1c(C)cccc1C (stereo not shown) [bupivacaine]
partitioning into the microemulsion (molecular separation, FIG. 4): selectively partition
